Laboratory results from US10766903B2 (ALMAC DISCOVERY LIMITED, priority 2016, dated 2020).
Like-named read-outs stand apart in the source and are kept apart here.

Target: USP7 (Homo sapiens (Human), UniProt Q93009)
Assay: USP7 fluorescence polarisation (FP) biochemical assay, ubiquitin-Lys-TAMRA substrate
Settings: average of at least duplicate experiments
How it was run: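 Full-length His6-USP7 (2.5 nM) incubated ± inhibitor (8-point dilutions, 200 to 0.1 μM before addition) in 50 mM HEPES pH 7.2, 150 mM NaCl, 0.5 mM EDTA, 5 mM DTT, 0.05% BSA, 0.05% CHAPS. Ubiquitin-Lys-TAMRA cleavage followed by FP (ex 530/em 575 nm) every 15 min for 1.5 h; normalised to no-compound control.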

[1] = Table 4, biochemical assay, read-out: USP7 IC50
[2] = USP7 IC50, Table 4, biochemical assay

Sequence of USP7 (Q93009 whole entry): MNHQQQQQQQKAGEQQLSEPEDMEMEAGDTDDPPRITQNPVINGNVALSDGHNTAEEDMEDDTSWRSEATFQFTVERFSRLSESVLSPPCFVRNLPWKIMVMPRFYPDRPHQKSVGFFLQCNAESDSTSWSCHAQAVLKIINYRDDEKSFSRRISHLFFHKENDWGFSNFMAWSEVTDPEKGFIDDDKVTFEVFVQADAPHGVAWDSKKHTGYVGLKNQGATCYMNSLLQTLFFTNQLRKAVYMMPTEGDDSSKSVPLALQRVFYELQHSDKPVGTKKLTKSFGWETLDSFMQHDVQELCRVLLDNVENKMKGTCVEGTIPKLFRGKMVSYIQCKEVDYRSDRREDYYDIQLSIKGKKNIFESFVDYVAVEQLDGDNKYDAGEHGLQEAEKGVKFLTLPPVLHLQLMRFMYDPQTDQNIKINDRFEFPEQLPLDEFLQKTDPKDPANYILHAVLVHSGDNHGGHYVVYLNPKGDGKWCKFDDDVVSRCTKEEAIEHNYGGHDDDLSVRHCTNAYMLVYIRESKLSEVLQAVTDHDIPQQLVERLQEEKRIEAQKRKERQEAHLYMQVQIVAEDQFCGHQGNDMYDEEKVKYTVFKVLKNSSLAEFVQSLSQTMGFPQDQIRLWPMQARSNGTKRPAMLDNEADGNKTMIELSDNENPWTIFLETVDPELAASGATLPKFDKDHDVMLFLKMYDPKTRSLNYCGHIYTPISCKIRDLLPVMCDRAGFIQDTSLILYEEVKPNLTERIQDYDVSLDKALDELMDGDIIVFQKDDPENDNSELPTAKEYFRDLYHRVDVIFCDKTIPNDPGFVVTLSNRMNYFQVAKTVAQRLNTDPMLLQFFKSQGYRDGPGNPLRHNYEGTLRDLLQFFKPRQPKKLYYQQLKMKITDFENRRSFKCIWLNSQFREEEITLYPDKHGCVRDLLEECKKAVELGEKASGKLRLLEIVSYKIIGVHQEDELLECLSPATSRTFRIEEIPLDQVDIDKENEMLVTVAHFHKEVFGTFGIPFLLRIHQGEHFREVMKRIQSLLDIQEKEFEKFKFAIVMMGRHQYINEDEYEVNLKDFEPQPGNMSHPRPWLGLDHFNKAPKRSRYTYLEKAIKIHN

| Structure (SMILES) | IC50 [1] [nM] | IC50 [2] [nM] |
| --- | --- | --- |
| C[C@H](CC(=O)N1CCC(O)(Cn2cnc(NCc3ccc(Cl)cc3)cc2=O)CC1)c1ccccc1 [Example 157, (R)-6-((4-chlorobenzyl)amino)-3-((4-hydroxy-1-(3-phenylbutanoyl)piperidin-4-yl)methyl)pyrimidin-4(3H)-one] | 1000 to 200000 | – |
| C[C@H](CC(=O)N1CCC(O)(Cn2cnc(N3CCN(Cc4cccnc4)CC3)cc2=O)CC1)c1ccccc1 [Example 158, (R)-3-((4-hydroxy-1-(3-phenylbutanoyl)piperidin-4-yl)methyl)-6-(4-(pyridin-3-ylmethyl)piperazin-1-yl)pyrimidin-4(3H)-one] | 1000 to 200000 | – |
| C[C@H](CC(=O)N1CCC(O)(Cn2cnc(N3CCN(Cc4ccccn4)CC3)cc2=O)CC1)c1ccccc1 [Example 159, (R)-3-((4-hydroxy-1-(3-phenylbutanoyl)piperidin-4-yl)methyl)-6-(4-(pyridin-2-ylmethyl)piperazin-1-yl)pyrimidin-4(3H)-one] | 1000 to 200000 | – |
| C[C@H](CC(=O)N1CCC(O)(Cn2cnc(N3CCC(F)(F)CC3)cc2=O)CC1)c1ccccc1 [Example 160, (R)-6-(4,4-difluoropiperidin-1-yl)-3-((4-hydroxy-1-(3-phenylbutanoyl)piperidin-4-yl)methyl)pyrimidin-4(3H)-one] | 1000 to 200000 | – |
| C[C@H](CC(=O)N1CCC(O)(Cn2cnc(NCC(=O)N(C)C)cc2=O)CC1)c1ccccc1 [Example 161, (R)-2-((1-((4-hydroxy-1-(3-phenylbutanoyl)piperidin-4-yl)methyl)-6-oxo-1,6-dihydropyrimidin-4-yl)amino)-N,N-dimethylacetamide] | 1000 to 200000 | – |
| C[C@H](CC(=O)N1CCC(O)(Cn2cnc(NCc3ccc4c(c3)OCCO4)cc2=O)CC1)c1ccccc1 [Example 162, (R)-6-(((2,3-dihydrobenzo[b][1,4]dioxin-6-yl)methyl)amino)-3-((4-hydroxy-1-(3-phenylbutanoyl)piperidin-4-yl)methyl)pyrimidin-4(3H)-one] | 1000 to 200000 | – |
| C[C@H](CC(=O)N1CCC(O)(Cn2cnc(NCC3CCOCC3)cc2=O)CC1)c1ccccc1 [Example 163, (R)-3-((4-hydroxy-1-(3-phenylbutanoyl)piperidin-4-yl)methyl)-6-(((tetrahydro-2H-pyran-4-yl)methyl)amino)pyrimidin-4(3H)-one] | 1000 to 200000 | – |
| C[C@H](CC(=O)N1CCC(O)(Cn2cnc(N3CC(C(=O)NCC4CC4)C3)cc2=O)CC1)c1ccccc1 [Example 164, (R)-N-(cyclopropylmethyl)-1-(1-((4-hydroxy-1-(3-phenylbutanoyl)piperidin-4-yl)methyl)-6-oxo-1,6-dihydropyrimidin-4-yl)azetidine-3-carboxamide] | 1000 to 200000 | – |
| C[C@H](CC(=O)N1CCC(O)(Cn2cnc(N3CC(F)C3)cc2=O)CC1)c1ccccc1 [Example 165, (R)-6-(3-fluoroazetidin-1-yl)-3-((4-hydroxy-1-(3-phenylbutanoyl)piperidin-4-yl)methyl)pyrimidin-4(3H)-one] | 1000 to 200000 | – |
| C[C@H](CC(=O)N1CCC(O)(Cn2cnc(N(C)CCO)cc2=O)CC1)c1ccccc1 [Example 166, (R)-3-((4-hydroxy-1-(3-phenylbutanoyl)piperidin-4-yl)methyl)-6-((2-hydroxyethyl)(methyl)amino)pyrimidin-4(3H)-one] | 1000 to 200000 | – |
| C[C@H](CC(=O)N1CCC(O)(Cn2cnc(NC3CCCC3)cc2=O)CC1)c1ccccc1 [Example 167, (R)-6-(cyclopentylamino)-3-((4-hydroxy-1-(3-phenylbutanoyl)piperidin-4-yl)methyl)pyrimidin-4(3H)-one] | – | 250 to 999 |
| C[C@H](CC(=O)N1CCC(O)(Cn2cnc(N3CCN(C)C(=O)C3)cc2=O)CC1)c1ccccc1 [Example 168, (R)-3-((4-hydroxy-1-(3-phenylbutanoyl)piperidin-4-yl)methyl)-6-(4-methyl-3-oxopiperazin-1-yl)pyrimidin-4(3H)-one] | 1000 to 200000 | – |
| C[C@H](CC(=O)N1CCC(O)(Cn2cnc(N3CC4(CCCO4)C3)cc2=O)CC1)c1ccccc1 [Example 169, (R)-3-((4-hydroxy-1-(3-phenylbutanoyl)piperidin-4-yl)methyl)-6-(5-oxa-2-azaspiro[3.4]octan-2-yl)pyrimidin-4(3H)-one] | 1000 to 200000 | – |
| Cc1nn(C)cc1Nc1cc(=O)n(CC2(O)CCN(C(=O)C[C@@H](C)c3ccccc3)CC2)cn1 [Example 170, (R)-6-((1,3-dimethyl-1H-pyrazol-4-yl)amino)-3-((4-hydroxy-1-(3-phenylbutanoyl)piperidin-4-yl)methyl)pyrimidin-4(3H)-one] | 1000 to 200000 | – |
| C[C@H](CC(=O)N1CCC(O)(Cn2cnc(N3CC4(CN(C)CCO4)C3)cc2=O)CC1)c1ccccc1 [Example 171, (R)-3-((4-hydroxy-1-(3-phenylbutanoyl)piperidin-4-yl)methyl)-6-(8-methyl-5-oxa-2,8-diazaspiro[3.5]nonan-2-yl)pyrimidin-4(3H)-one] | 1000 to 200000 | – |
| CC(=O)N1CC2(C1)CN(c1cc(=O)n(CC3(O)CCN(C(=O)C[C@@H](C)c4ccccc4)CC3)cn1)C2 [Example 172, (R)-6-(6-acetyl-2,6-diazaspiro[3.3]heptan-2-yl)-3-((4-hydroxy-1-(3-phenylbutanoyl)piperidin-4-yl)methyl)pyrimidin-4(3H)-one] | – | 250 to 999 |
| C[C@H](CC(=O)N1CCC(O)(Cn2cnc(N3CC4(CCC4(F)F)C3)cc2=O)CC1)c1ccccc1 [Example 173, (R)-6-(5,5-difluoro-2-azaspiro[3.3]heptan-2-yl)-3-((4-hydroxy-1-(3-phenylbutanoyl)piperidin-4-yl)methyl)pyrimidin-4(3H)-one] | 1000 to 200000 | – |
| C[C@H](CC(=O)N1CCC(O)(Cn2cnc(N3CC4(CCOCC4)C3)cc2=O)CC1)c1ccccc1 [Example 174, (R)-3-((4-hydroxy-1-(3-phenylbutanoyl)piperidin-4-yl)methyl)-6-(7-oxa-2-azaspiro[3.5]nonan-2-yl)pyrimidin-4(3H)-one] | – | 250 to 999 |
| C[C@H](CC(=O)N1CCC(O)(Cn2cnc(N3CCC4(CC3)COC4)cc2=O)CC1)c1ccccc1 [Example 175, (R)-3-((4-hydroxy-1-(3-phenylbutanoyl)piperidin-4-yl)methyl)-6-(2-oxa-7-azaspiro[3.5]nonan-7-yl)pyrimidin-4(3H)-one] | 1000 to 200000 | – |
| C[C@H](CC(=O)N1CCC(O)(Cn2cnc(N3CC4(CCOC4)C3)cc2=O)CC1)c1ccccc1 [Example 176, (R)-3-((4-hydroxy-1-(3-phenylbutanoyl)piperidin-4-yl)methyl)-6-(6-oxa-2-azaspiro[3.4]octan-2-yl)pyrimidin-4(3H)-one] | – | 250 to 999 |
| C[C@H](CC(=O)N1CCC(O)(Cn2cnc(N(CCO)Cc3cccnc3)cc2=O)CC1)c1ccccc1 [Example 177, (R)-3-((4-hydroxy-1-(3-phenylbutanoyl)piperidin-4-yl)methyl)-6-((2-hydroxyethyl)(pyridin-3-ylmethyl)amino)pyrimidin-4(3H)-one] | 1000 to 200000 | – |
| C[C@H](CC(=O)N1CCC(O)(Cn2cnc(N3CC4(CCCN4C)C3)cc2=O)CC1)c1ccccc1 [Example 178, (R)-3-((4-hydroxy-1-(3-phenylbutanoyl)piperidin-4-yl)methyl)-6-(5-methyl-2,5-diazaspiro[3.4]octan-2-yl)pyrimidin-4(3H)-one] | – | 250 to 999 |
| C[C@H](CC(=O)N1CCC(O)(Cn2cnc(N3CCC4(COC4)C3)cc2=O)CC1)c1ccccc1 [Example 179, (R)-3-((4-hydroxy-1-(3-phenylbutanoyl)piperidin-4-yl)methyl)-6-(2-oxa-6-azaspiro[3.4]octan-6-yl)pyrimidin-4(3H)-one] | – | 250 to 999 |
| C[C@H](CC(=O)N1CCC(O)(Cn2cnc3c(-c4ccc(C5(N)CCC5)cc4)n(C)nc3c2=O)CC1)c1ccccc1 [Example 182, (R)-3-(4-(1-Aminocyclobutyl)phenyl)-6-((4-hydroxy-1-(3-phenylbutanoyl)piperidin-4-yl)methyl)-2-methyl-2H-pyrazolo[4,3-d]pyrimidin-7(6H)-one] | < 250 | – |
| O=C(CCC1CCC1)N1CCC(O)(Cn2cnc(NCCN3CCCC3)cc2=O)CC1 [Example 183, 3-((1-(3-Cyclobutylpropanoyl)-4-hydroxypiperidin-4-yl)methyl)-6-((2-(pyrrolidin-1-yl)ethyl)amino)pyrimidin-4(3H)-one] | 1000 to 200000 | – |
| O=C(C(C1CCC1)C1CCC1)N1CCC(O)(Cn2cnc(NCCN3CCCC3)cc2=O)CC1 [Example 184, 3-((1-(2,2-Dicyclobutylacetyl)-4-hydroxypiperidin-4-yl)methyl)-6-((2-(pyrrolidin-1-yl)ethyl)amino)pyrimidin-4(3H)-one] | 1000 to 200000 | – |
| C[C@H](CC(=O)N1CCC(O)(Cn2cnc3c(nnn3-c3ccccc3)c2=O)CC1)c1ccccc1 [Example 185, (R)-6-((4-Hydroxy-1-(3-phenylbutanoyl)piperidin-4-yl)methyl)-3-phenyl-3H-[1,2,3]triazolo[4,5-d]pyrimidin-7(6H)-one] | < 250 | – |
| O=C(CCC1CCC1)N1CCC(O)(Cn2cnc3c(nnn3-c3ccccc3)c2=O)CC1 [Example 186, 6-((1-(3-Cyclobutylpropanoyl)-4-hydroxypiperidin-4-yl)methyl)-3-phenyl-3H-[1,2,3]triazolo[4,5-d]pyrimidin-7(6H)-one] | 1000 to 200000 | – |
| O=C(CC(C1CC1)C1CC1)N1CCC(O)(Cn2cnc3c(nnn3-c3ccccc3)c2=O)CC1 [Example 187, 6-((1-(3,3-Dicyclopropylpropanoyl)-4-hydroxypiperidin-4-yl)methyl)-3-phenyl-3H-[1,2,3]triazolo[4,5-d]pyrimidin-7(6H)-one] | 250 to 999 | – |
| Cc1nc2c(=O)n(CC3(O)CCN(C(=O)C[C@@H](C)c4ccccc4)CC3)cnc2n1-c1ccccc1 [Example 188, (R)-1-((4-Hydroxy-1-(3-phenylbutanoyl)piperidin-4-yl)methyl)-8-methyl-9-phenyl-1H-purin-6(9H)-one] | < 250 | – |
